PubChem BioAssay (NCI)
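Method: 48-hour compound exposure of cells in 96-well plates, five concentrations, linear interpolation of endpoints. TGI: total growth inhibition.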 Where a SMILES comes first, the peptide text is derived from it. [ ]: non-standard residue; d: D form. pGlu = O=C1CC[CH](C(=O)O)N1

Experiments:
Test in all cases: growth of human tumour cells (NCI), 48 h
786-0 renal = system: 786-0 renal
A498 renal = system: A498 renal
A549 NSCLC = system: A549 NSCLC
ACHN renal = system: ACHN renal
BT-549 breast = system: BT-549 breast
CAKI-1 renal = system: CAKI-1 renal
CCRF-CEM leukemia = system: CCRF-CEM leukemia
COLO 205 colon = system: COLO 205 colon
DU-145 prostate = system: DU-145 prostate
EKVX NSCLC = system: EKVX NSCLC
HCC-2998 colon = system: HCC-2998 colon
HCT-116 colon = system: HCT-116 colon
HCT-15 colon = system: HCT-15 colon
HOP-62 NSCLC = system: HOP-62 NSCLC
HOP-92 NSCLC = system: HOP-92 NSCLC
HS 578T breast = system: HS 578T breast
HT29 colon = system: HT29 colon
IGROV1 ovarian = system: IGROV1 ovarian
K-562 leukemia = system: K-562 leukemia
KM12 colon = system: KM12 colon
LOX IMVI melanoma = system: LOX IMVI melanoma
M14 melanoma = system: M14 melanoma
MALME-3M melanoma = system: MALME-3M melanoma
MCF7 breast = system: MCF7 breast
MDA-MB-231 breast = system: MDA-MB-231 breast
MDA-MB-435 = system: MDA-MB-435
MDA-N = system: MDA-N
NCI-H226 lung = system: NCI-H226 lung
NCI-H23 lung = system: NCI-H23 lung
NCI-H460 lung = system: NCI-H460 lung
NCI-H522 lung = system: NCI-H522 lung
NCI/ADR-RES ovarian = system: NCI/ADR-RES ovarian
OVCAR-3 ovarian = system: OVCAR-3 ovarian
OVCAR-4 ovarian = system: OVCAR-4 ovarian
OVCAR-5 ovarian = system: OVCAR-5 ovarian
OVCAR-8 ovarian = system: OVCAR-8 ovarian
PC-3 prostate = system: PC-3 prostate
RPMI-8226 leukemia = system: RPMI-8226 leukemia
RXF 393 renal = system: RXF 393 renal
SF-268 CNS = system: SF-268 CNS
SF-295 CNS = system: SF-295 CNS
SK-MEL-2 melanoma = system: SK-MEL-2 melanoma
SK-MEL-28 melanoma = system: SK-MEL-28 melanoma
SK-MEL-5 melanoma = system: SK-MEL-5 melanoma
SK-OV-3 ovarian = system: SK-OV-3 ovarian
SN12C renal = system: SN12C renal
SNB-19 CNS = system: SNB-19 CNS
SNB-75 CNS = system: SNB-75 CNS
SR leukemia = system: SR leukemia
SW-620 colon = system: SW-620 colon
T-47D breast = system: T-47D breast
TK-10 renal = system: TK-10 renal
U251 CNS = system: U251 CNS
UACC-257 melanoma = system: UACC-257 melanoma
UACC-62 melanoma = system: UACC-62 melanoma
UO-31 renal = system: UO-31 renal
HL-60(TB) leukemia = system: HL-60(TB) leukemia
MOLT-4 leukemia = system: MOLT-4 leukemia
SF-539 CNS = system: SF-539 CNS

Measured: TGI

O=C(Cc1ccc2ccccc2c1)NCc1ccc(C(=O)NCCc2ccccc2)cc1
> 100 µM: 786-0 renal | A498 renal | A549 NSCLC | ACHN renal | BT-549 breast | CAKI-1 renal | CCRF-CEM leukemia | COLO 205 colon | DU-145 prostate | EKVX NSCLC | HCC-2998 colon | HCT-116 colon | HCT-15 colon | HOP-62 NSCLC | HOP-92 NSCLC | HS 578T breast | HT29 colon | IGROV1 ovarian | K-562 leukemia | KM12 colon | LOX IMVI melanoma | M14 melanoma | MALME-3M melanoma | MCF7 breast | MDA-MB-231 breast | MDA-MB-435 | MDA-N | NCI-H226 lung | NCI-H23 lung | NCI-H460 lung | NCI-H522 lung | NCI/ADR-RES ovarian | OVCAR-3 ovarian | OVCAR-4 ovarian | OVCAR-5 ovarian | OVCAR-8 ovarian | PC-3 prostate | RPMI-8226 leukemia | RXF 393 renal | SF-268 CNS | SF-295 CNS | SK-MEL-2 melanoma | SK-MEL-28 melanoma | SK-MEL-5 melanoma | SK-OV-3 ovarian | SN12C renal | SNB-19 CNS | SNB-75 CNS | SR leukemia | SW-620 colon | T-47D breast | TK-10 renal | U251 CNS | UACC-257 melanoma | UACC-62 melanoma | UO-31 renal

CC(NC(=O)C1CCC(=O)N1)C(=O)N1CCCC1C(N)=O (stereo not drawn) ([pGlu]-Ala-Pro-NH2; configuration not given here)
> 100 µM: 786-0 renal | A498 renal | A549 NSCLC | ACHN renal | BT-549 breast | CAKI-1 renal | CCRF-CEM leukemia | COLO 205 colon | DU-145 prostate | EKVX NSCLC | HCC-2998 colon | HCT-116 colon | HCT-15 colon | HL-60(TB) leukemia | HOP-62 NSCLC | HOP-92 NSCLC | HS 578T breast | HT29 colon | IGROV1 ovarian | K-562 leukemia | KM12 colon | LOX IMVI melanoma | M14 melanoma | MALME-3M melanoma | MCF7 breast | MDA-MB-231 breast | MDA-MB-435 | MDA-N | MOLT-4 leukemia | NCI-H226 lung | NCI-H23 lung | NCI-H460 lung | NCI-H522 lung | NCI/ADR-RES ovarian | OVCAR-3 ovarian | OVCAR-4 ovarian | OVCAR-5 ovarian | OVCAR-8 ovarian | PC-3 prostate | RPMI-8226 leukemia | RXF 393 renal | SF-268 CNS | SF-295 CNS | SK-MEL-28 melanoma | SK-MEL-5 melanoma | SK-OV-3 ovarian | SN12C renal | SNB-19 CNS | SNB-75 CNS | SR leukemia | SW-620 colon | T-47D breast | TK-10 renal | U251 CNS | UACC-62 melanoma | UO-31 renal

CC(C)C1CSC2N1C(=O)C2(OCc1ccccc1)C1CC1 (stereo not drawn)
> 100 µM: 786-0 renal | A498 renal | A549 NSCLC | ACHN renal | BT-549 breast | CAKI-1 renal | CCRF-CEM leukemia | COLO 205 colon | DU-145 prostate | EKVX NSCLC | HCC-2998 colon | HCT-116 colon | HCT-15 colon | HL-60(TB) leukemia | HOP-62 NSCLC | HOP-92 NSCLC | HS 578T breast | HT29 colon | IGROV1 ovarian | K-562 leukemia | KM12 colon | LOX IMVI melanoma | M14 melanoma | MALME-3M melanoma | MCF7 breast | MDA-MB-231 breast | MDA-MB-435 | MDA-N | MOLT-4 leukemia | NCI-H226 lung | NCI-H23 lung | NCI-H460 lung | NCI-H522 lung | NCI/ADR-RES ovarian | OVCAR-3 ovarian | OVCAR-4 ovarian | OVCAR-5 ovarian | OVCAR-8 ovarian | PC-3 prostate | RPMI-8226 leukemia | RXF 393 renal | SF-268 CNS | SF-295 CNS | SF-539 CNS | SK-MEL-28 melanoma | SK-MEL-5 melanoma | SK-OV-3 ovarian | SN12C renal | SNB-19 CNS | SNB-75 CNS | SR leukemia | SW-620 colon | T-47D breast | TK-10 renal | U251 CNS | UACC-257 melanoma | UACC-62 melanoma | UO-31 renal

CC(=O)Nc1nc(C)c(S(=O)(=O)NC(=O)NC2NC(=O)NC2=O)s1 (stereo not drawn)
> 100 µM: 786-0 renal | A498 renal | A549 NSCLC | ACHN renal | BT-549 breast | CAKI-1 renal | CCRF-CEM leukemia | COLO 205 colon | DU-145 prostate | EKVX NSCLC | HCC-2998 colon | HCT-116 colon | HCT-15 colon | HL-60(TB) leukemia | HOP-62 NSCLC | HOP-92 NSCLC | HS 578T breast | HT29 colon | IGROV1 ovarian | K-562 leukemia | KM12 colon | LOX IMVI melanoma | M14 melanoma | MALME-3M melanoma | MCF7 breast | MDA-MB-231 breast | MDA-MB-435 | MDA-N | MOLT-4 leukemia | NCI-H23 lung | NCI-H460 lung | NCI-H522 lung | NCI/ADR-RES ovarian | OVCAR-3 ovarian | OVCAR-4 ovarian | OVCAR-5 ovarian | OVCAR-8 ovarian | PC-3 prostate | RPMI-8226 leukemia | RXF 393 renal | SF-268 CNS | SF-295 CNS | SF-539 CNS | SK-MEL-2 melanoma | SK-MEL-28 melanoma | SK-MEL-5 melanoma | SK-OV-3 ovarian | SN12C renal | SNB-19 CNS | SNB-75 CNS | SR leukemia | SW-620 colon | T-47D breast | TK-10 renal | U251 CNS | UACC-257 melanoma | UACC-62 melanoma | UO-31 renal
